Reference: paper PMC11355573, “A New Renieramycin T Right-Half Analog as a Small Molecule Degrader of STAT3” (Marine Drugs, 2024)

Tests used:
[1] = test system: H292 cells; experiment: MTT cell viability assay (cytotoxicity); type: cell-based, human; conditions: Homo sapiens, NCI-H292, 24 h, read-out: IC50 ± SD H292
Method: (§1) NSCLCs H292 and H460 were treated with various concentrations of derivatives of the RT right-half analog for 24 h. […] However, the IC50 values for DH_17, DH_20, DH_23, and DH_26 in H460 cells were greater than 100 μM. TM-(−)-18 was identified as a potent compound in a previous study. The structure of TM-(−)-18 was present in Figure 1A. […] To assess the selectivity of DH_28, DH_30, DH_31, and TM-(−)-18 in lung cancer cells, non-tumorigenic epithelial cell lines derived from human bronchial epithelial cells (BEAS-2B) were treated with DH_28, DH_30, DH_31, and TM-(−)-18 at various concentrations for 24 h.
(§2) MTT assay was conducted to ascertain cell viability in the presence of DH_17, DH_20, DH_23, DH_26, DH_28, DH_30, DH_31, or TM-(–)-18. H292 and H460 cells (1.0 × 10^4 cells per well) were seeded in 96-well plates. Following overnight incubation, the cells were treated with different concentrations of RT right–half analogs (0–100 μM) for 24 h at 37 °C. Subsequently, cell viability was assessed using MTT assay, following the manufacturers’ protocols. The optical density was measured at 570 nm using a CLARIOStar microplate reader (BMG Labtech, Ortenberg, Germany).

[2] = test system: H460 cells; experiment: MTT cell viability assay (cytotoxicity); type: cell-based, human; conditions: Homo sapiens, NCI-H460, 24 h, read-out: IC50 ± SD H460
Method: as §1, §2

[3] = test system: BEAS-2B cells; experiment: MTT assay in non-tumorigenic bronchial epithelial cells (selectivity); type: cell-based; conditions: Homo sapiens, 24 h, read-out: BEAS-2B IC50 ± SD
Method: as §1
Figure 2 The effect of RT right-half analogs on cytotoxicity in NSCLC and human normal lung epithelial (BEAS-2B) cell lines and apoptotic cell death in NSCLC cells. (A) NSCLC H292 and H460 cells were treated with derivatives of RT right-half analogs for 24 h and analyzed using MTT assay to assess cytotoxicity. (B) IC50 values for H292 and H460 cell lines were calculated. (C) BEAS-2B cells were treated with DH_28, DH_30, DH_31, and TM-(−)-18 for 24 h. The cytotoxic effects were evaluated using an MTT assay, and the IC50 values for BEAS-2B cells were determined. (D) H292 and H460 cells were seeded and treated with 0–10 μM of DH_28, DH_30, and DH_31 for 24 h. Hoechst 33342 and PI were used to stain the cell nuclei. Images were obtained under a fluorescence microscope. (E) The percentages of cell death were calculated based on the stained images in H292 and H460 cells. […] TEXT PRINTED IN THE PICTURE: (B) DH_17: IC50 ± SD (μM) H292: 20.50 ± 3.69; IC50 ± SD (μM) H460: > 100 | (B) DH_20: IC50 ± SD (μM) H292: 21.46 ± 3.77; IC50 ± SD (μM) H460: > 100 | (B) DH_23: IC50 ± SD (μM) H292: 17.50 ± 3.08; IC50 ± SD (μM) H460: > 100 | (B) DH_26: IC50 ± SD (μM) H292: 7.18 ± 2.39; IC50 ± SD (μM) H460: > 100 | (B) DH_28: IC50 ± SD (μM) H292: 9.56 ± 1.87; IC50 ± SD (μM) H460: 11.48 ± 1.87 | (B) DH_30: IC50 ± SD (μM) H292: 7.80 ± 2.30; IC50 ± SD (μM) H460: 4.51 ± 0.78 | (B) DH_31: IC50 ± SD (μM) H292: 5.54 ± 1.04; IC50 ± SD (μM) H460: 2.90 ± 0.58 | (B) TM-(–)-18: IC50 ± SD (μM) H292: > 100; IC50 ± SD (μM) H460: 7.89 ± 1.27 | (C) DH_28: BEAS-2B IC50 ± SD (μM): 16.46 ± 2.11 | (C) DH_30: BEAS-2B IC50 ± SD (μM): 5.50 ± 1.70 | (C) DH_31: BEAS-2B IC50 ± SD (μM): 6.51 ± 1.40 | (C) TM-(–)-18: BEAS-2B IC50 ± SD (μM): 7.25 ± 1.25 DOUBTS OF THE COPYIST ABOUT THIS PICTURE: Panel C, DH_28, IC50: small print, 16.46 ± 2.11 is the best reading; 6 could be 8 / Panel C, DH_30, IC50: small print, 5.50 ± 1.70 is the best reading; 5 could be 6 / Panel C, DH_31, IC50: small print, 6.51 ± 1.40 is the best reading; 6 could be 8 or 5 / Panel C, TM-(–)-18, IC50: small print, 7.25 ± 1.25 is the best reading

[4] = design: method as in PMID 32260280; conditions: concentration-dependent manner; cited from earlier work
[5] = test system: H460 cells; conditions: cited from earlier work

Compound | IC50 [1] [µM] | IC50 [2] [µM] | IC50 [3] [µM] | apoptosis [4] | H460 cell motility [5]
COc1c(C)cc2c(c1O)[C@@H]1CN(Cc3cccnc3)[C@@H](C#N)[C@H](C2)N1C [DH_20, (1R,4R,5S)-10-hydroxy-9-methoxy-8,11-dimethyl-3-(pyridin-3-ylmethyl)-1,2,3,4,5,6-hexahydro-1,5-epiminobenzo[d]azocine-4-carbonitrile] | 21.5 ± 3.77 | > 100 |  |  | 
COc1c(C)cc2c(c1O)[C@@H]1CN(Cc3ccccn3)[C@@H](C#N)[C@H](C2)N1C [DH_17, (1R,4R,5S)-10-hydroxy-9-methoxy-8,11-dimethyl-3-(pyridin-2-ylmethyl)-1,2,3,4,5,6-hexahydro-1,5-epiminobenzo[d]azocine-4-carbonitrile] | 20.5 ± 3.69 | > 100 |  |  | 
COc1c(C)cc2c(c1O)C1CN(Cc3ccccc3)C(C#N)C(C2)N1C (stereo not drawn) [TM-(−)-18, reference compound] | > 100 | 7.89 ± 1.27 | 7.25 ± 1.25 | increased | 
COc1c(C)cc2c(c1O)[C@@H]1CN(Cc3ccncc3)[C@@H](C#N)[C@H](C2)N1C [DH_23, (1R,4R,5S)-10-hydroxy-9-methoxy-8,11-dimethyl-3-(pyridin-4-ylmethyl)-1,2,3,4,5,6-hexahydro-1,5-epiminobenzo[d]azocine-4-carbonitrile] | 17.5 ± 3.08 | > 100 |  |  | 
22-O-(N-Boc-L-glycine) ester of RM |  |  |  |  | inhibited
